{"source": "paper PMC7352759", "about": "“S(+)-(2E)-N-(2-Hydroxypropyl)-3-Phenylprop-2-Enamide (KM-568): A Novel Cinnamamide Derivative with Anticonvulsant Activity in Animal Models of Seizures and Epilepsy” (International Journal of Molecular Sciences, 2020)", "key": {"[1]": {"assay": "In vitro metabolism, mouse liver microsomes", "type": "in vitro ADME", "description": "Stock solution of KM-568 was prepared in methanol. Mouse liver microsomes (Sigma–Aldrich, Darmstadt, Germany) were carefully thawed on ice before the experiment. A compound tested at concentration 20 μM was preincubated with mouse liver microsomes (0.4 mg/mL) in 100 mM potassium-phosphate buffer (pH 7.4) for 15 min at 37 °C. The biotransformation reaction was started with the addition of NADPH-regenerating system (NADP^+, glucose-6-phosphate, 0.7 U/mL glucose-6-phosphate dehydrogenase in 100 mM potassium-phosphate buffer) (Sigma–Aldrich, Darmstadt, Germany) and the mixture was incubated at 37 °C. Experiments were carried out 30 and 60 min at 37 °C, in duplicates. Negative control without NADPH-regenerating system was also conducted. Biotransformation was stopped by adding cooled 70% perchloric acid. Next, an internal standard (pentoxifylline) was added and samples were centrifuged at 9000 rpm for 10 min at 4 °C. The supernatant was analyzed by means of LC/MS. In vitro half time (t1/2) was established from the slope of the compound depletion curve. Intrinsic clearance (Clint) was obtained from the equation Clint = (volume of incubation [µl]/protein in the incubation [mg]) × 0.693/t1/2 [58, 59]."}, "[2]": {"tested_on": "HepG2 cells", "assay": "LDH cytotoxicity assay, HepG2", "type": "cell-based, human", "settings": "HepG2, up to 100 µM, 24 h", "description": "Human liver cancer HepG2 cell line (ATCC HB8065) and rat cardiomyoblast cell line H9c2 (ATCC-CRL1446) were purchased in ATCC (American Type Culture Collection, Manassas, VA, USA). The cells were cultured in standard conditions (37 °C, 5% CO2) in EMEM medium (ATCC, Manassas, VA, USA), supplemented with 10% FBS (Gibco, Waltham, MA, USA) and antibiotics (1% streptomycin/penicillin mixture, Sigma–Aldrich, Darmstadt, Germany) or DMEM high glucose (ATCC, Manassas, VA, USA) supplemented with 10% FBS (Gibco, Waltham, MA, USA) and antibiotics (1% streptomycin/penicillin mixture, Sigma–Aldrich, Darmstadt, Germany), respectively.\nCells were seeded at density 5 × 10^4 cells/per well. After 24 h, KM-568 and reference standard DOX were added to final concentrations of 0.1; 0.5; 1.0; 10; 25; 50; 100; 200 µM. After 24 h incubation, plates were centrifuged (400 g, 2 min) and 50 μL of the supernatant was transferred into the corresponding 96-well plate. […] Next, stop solution was added and absorbance was measured at 490 nm on a multi-well plate reader (Spectra Max iD3, Molecular Devices, San Jose, CA, USA). Cytotoxicity was determined as follows: cytotoxicity (%)=[(compound LDH activity – spontaneous LDH activity)/(maximum LDH activity – spontaneous LDH activity)] × 100. […]"}, "[3]": {"assay": "Neurotoxicity (TOX), behavioral tests, rats", "type": "in vivo", "settings": "rat, in vivo", "description": "(§1) In mice, the neurological deficit was measured by the rotarod test in which a 1 inch diameter knurled plastic rod rotating at 6 rpm was used. Tests were performed at 0.25 h or 0.5 h of intraperitoneal or oral administration of the certain dose of the compounds KM-568. Each mouse was placed on the rod. If the animal was not able to remain on the rod for at least 1 min in each of three trials, the neurotoxicity was scored. In rats, the neurological deficit was measured in behavioral tests and scored when ataxia and loss of placing response and muscle tone were observed. Tests in rats were performed after 0.5 h of intraperitoneal administration or 1.0 h of oral administration of the certain dose of compound KM-568. TD50s were calculated by probit analysis."}, "[4]": {"tested_on": "rats", "assay": "Neurotoxicity (TOX), behavioral tests, rats", "type": "in vivo", "description": "as §1"}, "[5]": {"tested_on": "hippocampal kindled rats", "assay": "Hippocampal kindled rat model", "type": "in vivo", "settings": "for Results (protected/tested animals) / Seizure Duration ± SEM / Seizure Score ± SEM (Racine scale): i.p.", "description": "The electrodes were implanted in brains one week prior to experiments. Then, rats were stimulated with suprathreshold stimuli of 200 µA for 10 sec at 50 Hz every 30 min for 6 h on alternate days until fully kindled. One week after reaching the fully kindled state, the effect of 23 and 27 mg/kg, i.p. of KM-568 in the groups of 5–6 rats were evaluated. The tests were performed at different time points (0–2.25 h) after compound administration. The results were scored as behavioral seizure score (according to Racine scale) and after discharge duration. The protection was noted if the seizure score was 3 or less."}, "[6]": {"tested_on": "mice", "assay": "Formalin test of hyperalgesia", "type": "in vivo", "settings": "44 mg/kg i.p.; for Reduction of time of licking of the affected paw: not statistically significant; for AUC % Control: vs methylcellulose", "description": "0.05% formalin was injected subdermal to the hindpaws of mice, which caused licking. In the tested group (n = 8), KM-568 was administered intraperitoneally 0.25 h prior to formalin at the dose of 44 mg/kg. In the control group, methylcellulose was used. Animals were then observed for the first 2 min of each 5 min for a total of 40 min. The cumulative duration of licking (in sec) during each 2-min recording period was measured for analysis across compound and vehicle-pretreated groups."}}, "data": [{"smiles": "C[C@H](O)CNC(=O)/C=C/c1ccccc1", "note": "[KM-568, S(+)-(2E)-N-(2-hydroxypropyl)-3-phenylprop-2-enamide]", "values": [{"measurement": "compound remained unchanged", "setting": "[1]; after 60 min of incubation with microsomes", "value": 72.37, "unit": "%"}, {"measurement": "metabolic stability qualification", "setting": "[1]; mouse liver microsomes", "value": "moderate metabolically stable"}, {"measurement": "half-life at 20 μM", "setting": "[1]; pH 7.4, mouse liver microsomes, 20 μM, read-out: half-life time (t1/2)", "value": 2.14, "unit": "h"}, {"measurement": "microsomal CLint at 20 μM", "setting": "[1]; pH 7.4, mouse liver microsomes, 20 μM, read-out: internal clearance (Clint)", "value": 13.5, "unit": "µL/min/mg"}, {"measurement": "cytotoxic effect, LDH assay", "setting": "[2]", "value": "no cytotoxic effect"}, {"measurement": "TD50 at 0.5 h", "setting": "[3]; ip, 0.5 h, 95% confidence interval in parentheses", "value": 95.2, "unit": "mg/kg"}, {"measurement": "TD50 at 1 h", "setting": "[3]; po, 1.0 h", "value": "> 500", "unit": "mg/kg"}, {"measurement": "TOX Results (animals displaying neurotoxicity/animals used)", "setting": "[4]; i.p., 60 mg/kg, 0.5 h", "value": "0/8"}, {"measurement": "TOX Results (animals displaying neurotoxicity/animals used)", "setting": "[4]; i.p., 80 mg/kg, 0.5 h", "value": "0/8"}, {"measurement": "TOX Results (animals displaying neurotoxicity/animals used)", "setting": "[4]; i.p., 100 mg/kg, 0.5 h", "value": "2/8"}, {"measurement": "TOX Results (animals displaying neurotoxicity/animals used)", "setting": "[4]; i.p., 120 mg/kg, 0.5 h", "value": "5/8"}, {"measurement": "TOX Results (animals displaying neurotoxicity/animals used)", "setting": "[4]; i.p., 140 mg/kg, 0.5 h", "value": "7/8"}, {"measurement": "TOX Results (animals displaying neurotoxicity/animals used)", "setting": "[4]; p.o., 125.0 mg/kg, 1.0 h", "value": "0/2"}, {"measurement": "TOX Results (animals displaying neurotoxicity/animals used)", "setting": "[4]; p.o., 250.0 mg/kg, 1.0 h", "value": "0/2"}, {"measurement": "TOX Results (animals displaying neurotoxicity/animals used)", "setting": "[4]; p.o., 500.0 mg/kg, 1.0 h", "value": "0/2"}, {"measurement": "ED50", "setting": "[5]; Rattus norvegicus, ip", "value": 24.2, "unit": "mg/kg"}, {"measurement": "Results (protected/tested animals)", "setting": "[5]; 23 mg/kg, 15 min", "value": "2/6"}, {"measurement": "Seizure Duration ± SEM", "setting": "[5]; 23 mg/kg, 15 min", "value": "55.67 ± 6.44", "unit": "s"}, {"measurement": "Seizure Score ± SEM (Racine scale)", "setting": "[5]; 23 mg/kg, 15 min", "value": "3.67 ± 0.84"}, {"measurement": "Seizure Duration ± SEM", "setting": "[5]; 23 mg/kg, 45 min", "value": "65.83 ± 14.61", "unit": "s"}, {"measurement": "Seizure Score ± SEM (Racine scale)", "setting": "[5]; 23 mg/kg, 45 min", "value": "5.0 ± 0.0"}, {"measurement": "Seizure Duration ± SEM", "setting": "[5]; 23 mg/kg, 75 min", "value": "56.67 ± 6.96", "unit": "s"}, {"measurement": "Seizure Score ± SEM (Racine scale)", "setting": "[5]; 23 mg/kg, 75 min", "value": "5.0 ± 0.0"}, {"measurement": "Seizure Duration ± SEM", "setting": "[5]; 23 mg/kg, 100 min", "value": "57.83 ± 9.27", "unit": "s"}, {"measurement": "Seizure Score ± SEM (Racine scale)", "setting": "[5]; 23 mg/kg, 100 min", "value": "5.0 ± 0.0"}, {"measurement": "Seizure Duration ± SEM", "setting": "[5]; 23 mg/kg, 135 min", "value": "55.17 ± 9.48", "unit": "s"}, {"measurement": "Seizure Score ± SEM (Racine scale)", "setting": "[5]; 23 mg/kg, 135 min", "value": "5.0 ± 0.0"}, {"measurement": "Results (protected/tested animals)", "setting": "[5]; 27 mg/kg, 15 min", "value": "4/5"}, {"measurement": "Seizure Duration ± SEM", "setting": "[5]; 27 mg/kg, 15 min", "value": "50.4 ± 3.08", "unit": "s"}, {"measurement": "Seizure Score ± SEM (Racine scale)", "setting": "[5]; 27 mg/kg, 15 min", "value": "1.8 ± 0.97"}, {"measurement": "Seizure Score ± SEM (Racine scale)", "setting": "[5]; 27 mg/kg, 45 min", "value": "4.2 ± 0.80"}, {"measurement": "Seizure Duration ± SEM", "setting": "[5]; 27 mg/kg, 75 min", "value": "70.6 ± 27.57", "unit": "s"}, {"measurement": "Seizure Score ± SEM (Racine scale)", "setting": "[5]; 27 mg/kg, 75 min", "value": "3.4 ± 0.98"}, {"measurement": "Seizure Duration ± SEM", "setting": "[5]; 27 mg/kg, 100 min", "value": "62.5 ± 10.71", "unit": "s"}, {"measurement": "Seizure Score ± SEM (Racine scale)", "setting": "[5]; 27 mg/kg, 100 min", "value": "5.0 ± 0.0"}, {"measurement": "Seizure Duration ± SEM", "setting": "[5]; 27 mg/kg, 135 min", "value": "95.0 ± 17.78", "unit": "s"}, {"measurement": "Seizure Score ± SEM (Racine scale)", "setting": "[5]; 27 mg/kg, 135 min", "value": "5.0 ± 0.0"}, {"measurement": "AUC (total area under curve, time of licking)", "setting": "[6]; acute phase", "value": 184.18}, {"measurement": "Reduction of time of licking of the affected paw", "setting": "[6]; acute phase", "value": 24, "unit": "%"}, {"measurement": "AUC % Control", "setting": "[6]; acute phase", "value": 76.37, "unit": "% Control"}, {"measurement": "AUC (total area under curve, time of licking)", "setting": "[6]; inflammatory phase", "value": 556.81}, {"measurement": "Reduction of time of licking of the affected paw", "setting": "[6]; inflammatory phase", "value": 32, "unit": "%"}, {"measurement": "AUC % Control", "setting": "[6]; inflammatory phase", "value": 67.96, "unit": "% Control"}]}]}
